{
  "source": "PubChem BioAssay AID328",
  "about": "(DTP/NCI, 2004)",
  "system": "BDF1 mice, P388 leukemia ip, median survival T/C",
  "assay": "NCI In Vivo Anticancer Drug Screen. Data for tumor model P388 Leukemia (intraperitoneal) in B6D2F1 (BDF1) mice",
  "settings": "endpoint: median survival time, higher = longer survival",
  "summary_of_the_method": "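Survival ratio, drug arm over vehicle arm, in mice with a transplanted tumour.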",
  "key": {"[1]": {"settings": "dose: 25.0 mg/kg/injection, schedule: Q01DX009 (ip), vehicle: water"}, "[2]": {"settings": "dose: 25.0 mg/kg/injection, schedule: Q04DX003 (ip), vehicle: water"}, "[3]": {"settings": "dose: 50.0 mg/kg/injection, schedule: Q01DX009 (ip), vehicle: water"}, "[4]": {"settings": "dose: 50.0 mg/kg/injection, schedule: Q04DX003 (ip), vehicle: water"}, "[5]": {"settings": "dose: 100.0 mg/kg/injection, schedule: Q01DX009 (ip), vehicle: water"}, "[6]": {"settings": "dose: 100.0 mg/kg/injection, schedule: Q04DX003 (ip), vehicle: water"}, "[7]": {"settings": "dose: 200.0 mg/kg/injection, schedule: Q01DX009 (ip), vehicle: water"}, "[8]": {"settings": "dose: 400.0 mg/kg/injection, schedule: Q01DX009 (ip), vehicle: water"}},
  "note": "“And” between values parts separate entries of the source, which are not always exact repeats. Equal values may be shown once. Toxic doses and inconclusive results are not listed.",
  "data": [
    {"smiles": "COC(=O)C[C@](O)(CCC(C)(C)O)C(=O)O[C@@H]1C(OC)=C[C@]23CCCN2CCc2cc4c(cc2[C@H]13)OCO4", "values": [
      {"measurement": "T/C", "setting": "dose: 0.22 mg/kg/injection, schedule: Q01DX009 (ip), vehicle: saline", "result": "190 % of control"},
      {"measurement": "T/C", "setting": "dose: 0.25 mg/kg/injection, schedule: Q01DX009 (ip), vehicle: saline", "result": "172 % of control and 209 % of control and 215 % of control"},
      {"measurement": "T/C", "setting": "dose: 0.25 mg/kg/injection, schedule: Q03HX016 (ip), vehicle: saline", "result": "163 % of control"},
      {"measurement": "T/C", "setting": "dose: 0.25 mg/kg/injection, schedule: Q03HX024 (ip), vehicle: saline", "result": "177 % of control"},
      {"measurement": "T/C", "setting": "dose: 0.33 mg/kg/injection, schedule: Q01DX009 (ip), vehicle: saline", "result": "204 % of control"},
      {"measurement": "T/C", "setting": "dose: 0.5 mg/kg/injection, schedule: Q01DX006 (iv), vehicle: saline", "result": "110 % of control"},
      {"measurement": "T/C", "setting": "dose: 0.5 mg/kg/injection, schedule: Q01DX009 (ip), vehicle: water", "result": "261 % of control and 294 % of control"},
      {"measurement": "T/C", "setting": "dose: 0.5 mg/kg/injection, schedule: Q03HX008 (ip), vehicle: saline", "result": "172 % of control"},
      {"measurement": "T/C", "setting": "dose: 0.5 mg/kg/injection, schedule: Q03HX016 (ip), vehicle: saline", "result": "163 % of control"},
      {"measurement": "T/C", "setting": "dose: 0.5 mg/kg/injection, schedule: Q03HX024 (ip), vehicle: saline", "result": "236 % of control"},
      {"measurement": "T/C", "setting": "dose: 1.0 mg/kg/injection, schedule: Q01DX009 (ip), vehicle: water", "result": "350 % of control and 405 % of control"},
      {"measurement": "T/C", "setting": "dose: 1.0 mg/kg/injection, schedule: Q01DX009 (sc), vehicle: saline", "result": "165 % of control"},
      {"measurement": "T/C", "setting": "dose: 1.0 mg/kg/injection, schedule: Q01DX010 (oral), vehicle: saline", "result": "115 % of control"},
      {"measurement": "T/C", "setting": "dose: 1.0 mg/kg/injection, schedule: Q03HX016 (ip), vehicle: saline", "result": "109 % of control"},
      {"measurement": "T/C", "setting": "dose: 1.0 mg/kg/injection, schedule: Q03HX024 (ip), vehicle: saline", "result": "100 % of control"},
      {"measurement": "T/C", "setting": "dose: 2.0 mg/kg/injection, schedule: Q01DX006 (iv), vehicle: saline", "result": "205 % of control"},
      {"measurement": "T/C", "setting": "dose: 2.0 mg/kg/injection, schedule: Q01DX009 (ip), vehicle: water", "result": "205 % of control"},
      {"measurement": "T/C", "setting": "dose: 2.0 mg/kg/injection, schedule: Q01DX009 (oral), vehicle: saline", "result": "210 % of control"},
      {"measurement": "T/C", "setting": "dose: 2.0 mg/kg/injection, schedule: Q01DX009 (sc), vehicle: saline", "result": "215 % of control"},
      {"measurement": "T/C", "setting": "dose: 2.0 mg/kg/injection, schedule: Q01DX010 (oral), vehicle: saline", "result": "160 % of control"},
      {"measurement": "T/C", "setting": "dose: 2.0 mg/kg/injection, schedule: Q01DX010 (sc), vehicle: saline", "result": "235 % of control"},
      {"measurement": "T/C", "setting": "dose: 2.0 mg/kg/injection, schedule: Q04DX003 (ip), vehicle: saline", "result": "154 % of control"},
      {"measurement": "T/C", "setting": "dose: 4.0 mg/kg/injection, schedule: Q01DX009 (ip), vehicle: saline", "result": "150 % of control"},
      {"measurement": "T/C", "setting": "dose: 4.0 mg/kg/injection, schedule: Q01DX010 (sc), vehicle: saline", "result": "100 % of control"},
      {"measurement": "T/C", "setting": "dose: 8.0 mg/kg/injection, schedule: Q01DX001 (ip), vehicle: saline", "result": "118 % of control"},
      {"measurement": "T/C", "setting": "dose: 8.0 mg/kg/injection, schedule: Q01DX010 (oral), vehicle: saline", "result": "90 % of control"},
      {"measurement": "T/C", "setting": "dose: 8.0 mg/kg/injection, schedule: Q04DX003 (ip), vehicle: saline", "result": "104 % of control"},
      {"measurement": "T/C", "setting": "dose: 8.0 mg/kg/injection, schedule: Q08DX002 (ip), vehicle: saline", "result": "100 % of control"}
    ]},
    {"smiles": "CC(C)C(=O)c1ccc(-c2ccccc2)cc1", "values": [
      {"measurement": "T/C", "setting": "dose: 12.5 mg/kg/injection, schedule: Q01DX009 (ip), vehicle: water", "result": "105 % of control"},
      {"measurement": "T/C", "setting": "[1]", "result": "113 % of control"},
      {"measurement": "T/C", "setting": "[2]", "result": "97 % of control"},
      {"measurement": "T/C", "setting": "[3]", "result": "102 % of control"},
      {"measurement": "T/C", "setting": "[4]", "result": "101 % of control"},
      {"measurement": "T/C", "setting": "[5]", "result": "111 % of control"},
      {"measurement": "T/C", "setting": "[6]", "result": "97 % of control"},
      {"measurement": "T/C", "setting": "[7]", "result": "102 % of control"},
      {"measurement": "T/C", "setting": "dose: 200.0 mg/kg/injection, schedule: Q04DX003 (ip), vehicle: water", "result": "92 % of control"},
      {"measurement": "T/C", "setting": "[8]", "result": "119 % of control"},
      {"measurement": "T/C", "setting": "dose: 400.0 mg/kg/injection, schedule: Q04DX003 (ip), vehicle: water", "result": "89 % of control"}
    ]},
    {"smiles": "COC1(c2ccc(Br)cc2)OC1(C)C", "note": "(centres undefined)", "values": [
      {"measurement": "T/C", "setting": "dose: 6.25 mg/kg/injection, schedule: Q04DX003 (ip), vehicle: water", "result": "101 % of control"},
      {"measurement": "T/C", "setting": "dose: 12.5 mg/kg/injection, schedule: Q04DX003 (ip), vehicle: water", "result": "94 % of control"},
      {"measurement": "T/C", "setting": "[1]", "result": "110 % of control"},
      {"measurement": "T/C", "setting": "[2]", "result": "101 % of control"},
      {"measurement": "T/C", "setting": "[3]", "result": "112 % of control"},
      {"measurement": "T/C", "setting": "[4]", "result": "97 % of control"},
      {"measurement": "T/C", "setting": "[5]", "result": "100 % of control"},
      {"measurement": "T/C", "setting": "[6]", "result": "86 % of control"},
      {"measurement": "T/C", "setting": "[7]", "result": "110 % of control"},
      {"measurement": "T/C", "setting": "[8]", "result": "124 % of control"}
    ]}
  ]
}
